Broadly, the IC50 is the point on the concentration scale where inhibition reaches its midpoint.

Here are results for four compounds from US11613753B2, “Methods and pharmaceutical compositions for treating tubulin carboxypeptidases associated diseases” (LES LABORATOIRES SERVIER, priority 2017, dated 2023).

“Also recorded” adds a separate entry of the source.

This assay has as its target T1, brain TCP (fraction IV) (Mus musculus, UniProt Q8C1W1).
T1 construct: from tissue; host or cells: adult mouse brain, fraction IV (ammonium sulfate cut, Hitrap Q XL flow-through, Hitrap SP XL eluate)
T1 sequence (Q8C1W1 1-375): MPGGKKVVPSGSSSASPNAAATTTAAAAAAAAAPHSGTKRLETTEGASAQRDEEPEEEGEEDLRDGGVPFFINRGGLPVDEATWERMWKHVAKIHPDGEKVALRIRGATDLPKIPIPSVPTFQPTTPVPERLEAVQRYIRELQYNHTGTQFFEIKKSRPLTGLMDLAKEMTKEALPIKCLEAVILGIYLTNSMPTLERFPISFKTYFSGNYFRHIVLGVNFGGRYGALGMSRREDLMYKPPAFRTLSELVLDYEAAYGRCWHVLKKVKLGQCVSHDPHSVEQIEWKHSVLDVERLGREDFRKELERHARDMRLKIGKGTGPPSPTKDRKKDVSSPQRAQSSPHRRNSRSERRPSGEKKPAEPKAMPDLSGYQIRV
T1 sequence (Q99LQ4 1-66 partner): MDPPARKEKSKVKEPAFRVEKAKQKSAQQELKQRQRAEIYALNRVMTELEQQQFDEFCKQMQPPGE
As to the kind of experiment: TCP activity assay, radioactivity test with [14C]-tyrosinated taxol-stabilized microtubules, on enriched brain fraction IV. The note with it: FIG. 1B. The assay is classed as biochemical. As to the method: Preparation of tyrosinated tubulin and microtubule, and EB1. Bovine brain tubulin (12 mg/mL, prepared as in (S. Ramirez-Rios et al., (2016) Molecular biology of the cell 27, 2924) was tyrosinated by incubation for 45 min at 30° C. with purified chicken TTL (1 mg/mL, gift from Steinmetz group) and 0.1 mM L-tyrosine or [14C]-L-tyrosine (0.125 μCi/mole) in 40 mM Pipes at pH 6.7, 60 mM KCl, 2.5 mM ATP, 1 mM DTT, 12.5 mM MgCl2. Microtubules polymerization was allowed by one-third dilution in 100 mM PIPES at pH 6.7. 1 mM EGTA, 1 mM MgCl2, 30% glycerol, 1 mM GTP and incubation at 32° C. for 45 min, followed by another 45 min incubation with 50 μM Paclitaxel (Calbiochem). Microtubules were sedimented by 25 min centrifugation at 100,000 g and 30° C. on 60% glycerol cushions. TTL-containing supernatant was discarded and tyrosinated-microtubules were resuspended in 100 mM PIPES at pH 6.7, 1 mM EGTA, 1 mM MgCl2, 10% glycerol, 80 μM paclitaxel and stored at −20° C. To obtain unpolymerized tyrosinated-tubulin, paclitaxel was omitted during the whole procedure. EB1 was prepared as in S. Ramirez-Rios et al., (2016) Molecular biology of the cell 27, 2924.
TCP activity assays. In radioactivity tests using [14C]-tyrosinated taxol-stabilized microtubule, enzyme activity was measured in 100 mM MES at pH 6.7. 1 mM EGTA and 1 mM MgCl2 using 2 μM radiolabeled tubulin, except in FIGS. 2D and S2D (as indicated in legend). Reactions were performed for 45 min at 37° C. (without or with previous incubation with inhibitors, see legends) and were stopped on ice by addition of 20 μg/ml bovine serum albumin and 10% perchloric acid and centrifugation. Tyrosine cleaved from microtubules was estimated by measuring radioactivity in the supernatant (a zero time control was subtracted). To compose the table of Fig. S1A, detyrosination activity from equal volumes of the various fractions was measured. In tests with inhibitors, detyrosination activity was tested after a 20 min preincubation with inhibitor (except in Figs. S2C and S2) where varying time of incubation were used as indicated in legend), and results with inhibitors were expressed as percentage of the activity in the control with corresponding solvent. In tests using Western-blots, enzyme activity was assayed with 5 μM substrates (taxol-stabilized microtubule, tubulin or EB1) in 100 mM MES at pH 6.7. Positive controls were done with carboxypeptidase A (2 ng/mL). Reactions were stopped by addition of Laemmli buffer. A reaction with carboxypeptidase A (CPA), which efficiently cleaves aromatic and aliphatic C-terminal residues, was used as positive control. In tests using VASH/SVBP complexes purified on cobalt resin from HEK293T cells, enzymes concentration were approximated from in-gel Coomassie-blue staining of purified VASH1 and VASH2 together with standards of bovine serum albumin.
Enzyme enrichment. We designed a three-step purification procedure from brain lysate inspired from previous efforts (N. Kumar, M. Flavin, (1981) The Journal of biological chemistry 256, 7678; C. E. Argarana, H. S. Barra, R. Caputto, (1980) Journal of neurochemistry 34, 114). All steps were carried out at 4° C. Adult mice brains were homogenized in 50 mM phosphate buffer at pH 6.7, 1 mM EGTA, 1 mM MgCl2, 1 μg/ml DNAse with a protease inhibitor cocktail (cOmplete EDTA-free, Roche) and centrifuged 1 h at 100.000 g. The supernatant was collected (Fraction 1). In step 1 (ammonium sulfate fractionation), Fraction 1 was slowly brought to 45% ammonium sulfate, incubated for 15 min and centrifuged 20 min at 15,000 g. Resulting supernatant underwent the same procedure at 65% ammonium sulfate. The pellet was re-suspended in one-eighth of initial volume with 50 mM MES pH 6.7, 1 mM EGTA, 1 mM MgCl2 and desalted using Bio-Gel P30 (Bio-Rad) equilibrated with the same buffer (Fraction 11). […]

Consider `NCCc1ccc(S(=O)(=O)F)cc1` [AEBSF], for which the “Inhibition of brain TCP activity (in words)” value (“Inhibition … (in words)” below) is “inhibited”. Take `CC(C)C[C@H](NC(=O)[C@H]1O[C@@H]1C(=O)O)C(=O)NCCCCN=C(N)N` [E-64]: the “Inhibition … (in words)” value is recorded as “inhibited; also recorded: modest inhibitory activity”. Further, the IC50, inhibition of TCP activity (20 min preincubation with inhibitor) amounted to 300 µM. `CCOC(=O)[C@H]1O[C@@H]1C(=O)N[C@@H](Cc1ccc(O)cc1)C(=O)O` [EpoY]: the “Inhibition … (in words)” value is recorded as “most potent inhibitor”. Under “20 min preincubation with inhibitor, read-out: IC50, inhibition of TCP activity”, the half-inhibitory concentration (IC50) is approximately 0.5 µM. For `CCN1C(=O)C=CC1=O` [N-Ethylmaleimide], the “Inhibition … (in words)” value was “inhibited”.
